Experimental findings from publication PMC7922564, “Molecular Insights into an Antibiotic Enhancer Action of New Morpholine-Containing 5-Arylideneimidazolones in the Fight against MDR Bacteria” (International Journal of Molecular Sciences, 2021) are described below.

One data set has as its system S. aureus R46-CC22. The experiment in a line: MIC of compounds, S. aureus R46-CC22. Conditions: Staphylococcus aureus; R46-CC22 (MRSA). The format is cell-based. Here is the method:
Compounds 14–16 were tested further for their adjuvant-like effect with a set of ten additional S. aureus isolates. Firstly, MIC values of the molecules were evaluated in two clinical MSSA isolates (MM-O058, MM-N072), seven MRSA (USA300 LAC, 5328, LG-N017, MM-O021, R45-CC45, R46-CC22, COL) and one VISA strain (Mu50). Detailed results are presented in the Supplementary section (Table S3).
(§1) Determination of MIC values, i.e., intrinsic antibacterial activity, of products and antibiotics (oxacillin, ampicillin, vancomycin, ciprofloxacin, and erythromycin) in the presence and absence of compounds tested was conducted by the use of a standard 2-fold microdilution method in cation-adjusted Mueller Hinton broth following the Clinical and Laboratory Standards Institute (CLSI) guidelines. The MIC values were detected using an Infinite M200 pro Tecan microplate reader (Tecan® France, SA-Lyon, France). MIC determinations were conducted in 96-well microtiter plates and repeated 3–4 times.
(§2) Initially, MICs of a series of imidazolone derivatives were assessed against susceptible (reference) and MDR strains of staphylococci. Next, MIC values of the aforementioned antibiotics were determined in the absence and presence of imidazolone derivatives to assess the chemosensitizing effect of these compounds. […] 5-arylideneimidazolones and 5-arylidenethiazolones, which precipitated after addition to bacterial suspension in MH II medium, were tested at the highest concentrations at which precipitation was not observed. […] Antibacterial activity of compounds and antibiotics ampicillin, vancomycin, ciprofloxacin, and erythromycin was recorded as the lowest concentration of molecules able to inhibit bacterial growth after 18 h incubation at 37 °C. […] The results are presented as activity gain (A) parameter which was calculated as ratio of MIC of a certain antibiotic (MICAnt) to its MICAnt+Comp, observed in combination with a tested compound (7, 12–16, 19, or 20; Equation (1)). […]

The test system of a further data set is S. aureus R45-CC45. The experiment in a line: MIC reduction assay (antibiotic adjuvant), S. aureus R45-CC45. The format is cell-based, Staphylococcus aureus. The following applies: ampicillin; for A (activity gain): range over repetitions.
Text: The adjuvant properties of compounds 14–16 in S. aureus clinical isolates were next tested in combination with oxacillin and the penicillinase-susceptible β-lactam antibiotic, ampicillin. The second β-lactam antibiotic was chosen based on its vulnerability to enzymatic hydrolysis, another important resistance mechanism in S. aureus against penicillin. Therefore, the results of the MIC reduction assay obtained on the activity of arylideneimidazolones combined with oxacillin and ampicillin, respectively, might provide further insights into the possible mechanism of action of the compounds. Complete results are presented in Supplementary (Tables S4 and S5), while condensed in Figure 6, in the case of desired activity noted. […] One possible explanation for the lack of adjuvant activity of compounds in some of the strains selected for this study might be that these strains express PBP2a only when induced by the antibiotic, while others, for which potentiating activity of compounds was observed, produce this protein in high levels straight away.
as §1, §2

Data set [1] can be described thus: Water solubility (UV spectroscopy). It is filed as physicochemical. The text has this: Six representatives of 5-arylideneimidazolones (9–12, 15, 19) were chosen for the determination of water solubility. UV spectroscopy was used for the estimation of concentrations of compounds according to the method described earlier. Acquired UV absorbance, calculated means, and standard deviations for tested compounds are presented in Supplementary Table S18. Solubility results, presented in Table 6, point out that compounds from the same group (A or B, Table 1 and Table 2) with the two-ring aromatic moiety are more soluble than compounds with the fluorene motive (Group A: 9, 10, 11 vs. 12; Group B: 15 vs. 19). […] The most soluble of tested compounds was compound 15, which could be dissolved in water at a concentration of up to 205.502 mM/L.
Water solubility was obtained using UV spectroscopy method. Absorbance of tested solutions of compounds 9-12, 15, and 19, respectively in suitable dilution, in three repetitions as well as calculated arithmetic means, solubility and standard deviations are presented in Table S18. the solubility results […]
Table S18. Results of absorbance used for estimation of water solubility of tested compounds (9-12, 15, 19).
Abbreviations: A1, A2,and A3, UV absorbance in first, second, and third repetition; Amean, arithmetic mean of absorbance from three repetitions; s, standard deviation for absorbance; S, water solubility; SD – standard deviation for solubility. […]

A short description of data set [2]: Stability in acidic and basic conditions (TLC). The format is physicochemical. Conditions: for Number of TLC spots: 1 = stable. Here is the method: Compounds 9–12, 15, and 19 were also tested for their stability in acidic and basic conditions. This assay was carried out for 48 h and samples were taken at six-time intervals (10 min, 1 h, 2 h, 3 h, 24 h, 48 h). Stability of the compounds was determined using the TLC method. […] In basic conditions, only compounds 10 and 15 were stable for 24 h. […] Results with details, including time of degradation of products obtained, are presented in the Supplementary (Tables S19 and S20). […]
VI. Stability in different pH conditions
Stability of chosen compounds (9-12, 15, and 19) were determined using the TLC method. Assays were performed in acidic and basic conditions and were carried out for 48 h. Samples were taken at six-time intervals (10 min., 1 h, 2 h, 3 h, 24 h, 48 h). […]
of spots observed on TLC, where 1 indicate that compound is stable (only TLC spot for proper compound was observed). Higher values point out how many products of degradation was observed, which can be calculating by subtracting one from number of spots.
Table S19. Results of chosen compounds (9-12, 15, 19) stability in acidic conditions.
Compound Number of TLC spots in defined time
Table S20. Results of chosen compounds (9-12, 15, 19) stability in basic conditions.

Another data set addresses CYP3A4 (Homo sapiens, UniProt P08684). The experiment in a line: Luminescent CYP3A4 P450-Glo assay. Here is the method:
The luminescent CYP3A4 P450-Glo™ assay was carried out according to a protocol described previously (Promega, Madison, WI, USA). […] Performance of enzymatic reaction was carried out in white polystyrene, flat-bottom Nunc™ MicroWell™ 96-Well Microplate (Thermo Scientific Waltham, MA, USA) and the result was measured with a microplate reader EnSpire in luminescence mode (PerkinElmer, Waltham, MA USA). IC50 values were calculated using GraphPad Prism™ software (version 5.01, San Diego, CA, USA). Compounds 15 and 19 were tested at concentrations from 0.01 μM to 25 μM.

Another data set relates to S. aureus Mu50. Put plainly: MIC of compounds, S. aureus Mu50. It is filed as cell-based. Conditions: Staphylococcus aureus; Mu50 (VISA). Here is the method:
Compounds 14–16 were tested further for their adjuvant-like effect with a set of ten additional S. aureus isolates. Firstly, MIC values of the molecules were evaluated in two clinical MSSA isolates (MM-O058, MM-N072), seven MRSA (USA300 LAC, 5328, LG-N017, MM-O021, R45-CC45, R46-CC22, COL) and one VISA strain (Mu50). Detailed results are presented in the Supplementary section (Table S3). […]
Initially, MICs of a series of imidazolone derivatives were assessed against susceptible (reference) and MDR strains of staphylococci. Next, MIC values of the aforementioned antibiotics were determined in the absence and presence of imidazolone derivatives to assess the chemosensitizing effect of these compounds. […] Antibacterial activity of compounds and antibiotics ampicillin, vancomycin, ciprofloxacin, and erythromycin was recorded as the lowest concentration of molecules able to inhibit bacterial growth after 18 h incubation at 37 °C. […] The results are presented as activity gain (A) parameter which was calculated as ratio of MIC of a certain antibiotic (MICAnt) to its MICAnt+Comp, observed in combination with a tested compound (7, 12–16, 19, or 20; Equation (1)). […]

As usually defined, the MIC is the lowest concentration that inhibits growth of the organism. In general, solubility refers to how much of the substance goes into solution per volume. Higher therefore signals much dissolved substance. Broadly, the IC50 is the concentration needed to halve the response being measured. The term inhibition denotes the change of the read-out against control, counted positive when it falls. Read a high inhibition as a response far below the control.

Values joined by “and” are separate entries in the source; they are usually repeats but may differ in a detail not shown here. Equal values may be shown once.

Chain of CYP3A4 (P08684 whole entry): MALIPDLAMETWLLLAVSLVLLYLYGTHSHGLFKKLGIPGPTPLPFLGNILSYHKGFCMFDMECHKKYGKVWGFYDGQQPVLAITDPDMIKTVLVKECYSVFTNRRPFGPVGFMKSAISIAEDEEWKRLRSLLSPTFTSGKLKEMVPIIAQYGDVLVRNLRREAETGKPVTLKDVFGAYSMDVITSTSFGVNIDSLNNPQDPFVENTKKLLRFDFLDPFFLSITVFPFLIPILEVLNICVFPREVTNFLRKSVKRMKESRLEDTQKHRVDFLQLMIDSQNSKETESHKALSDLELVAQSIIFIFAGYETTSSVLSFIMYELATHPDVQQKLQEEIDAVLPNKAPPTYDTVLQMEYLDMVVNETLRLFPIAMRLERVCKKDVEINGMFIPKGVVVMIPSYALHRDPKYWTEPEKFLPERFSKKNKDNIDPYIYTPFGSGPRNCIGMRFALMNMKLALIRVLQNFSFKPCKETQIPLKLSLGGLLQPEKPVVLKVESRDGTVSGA

`NC1=N/C(=C\c2ccc(-c3ccccc3)cc2)C(=O)N1CCCN1CCOCC1` [Compound 15]: the minimum inhibitory concentration (MIC) with S. aureus R46-CC22 and in the data set with S. aureus Mu50 was 250 µM each time. Besides, the “A (AMP), gain of activity, arithmetic mean” value in the data set on S. aureus R45-CC45 (arithmetic mean of 3-4 repetitions) is given as 6. Besides, the “A (activity gain)” value in the data set with S. aureus R45-CC45 is 4-8. Moreover, the solubility in data set [1] is 87600 µg/mL and 206000 µM. The “Number of TLC spots” value is 2 in data set [2] (acidic conditions, 10 min); 2 in data set [2] (acidic conditions, 1 h); 2 in data set [2] (acidic conditions, 2 h); 2 in data set [2] (acidic conditions, 3 h); 2 in data set [2] (acidic conditions, 24 h); 2 in data set [2] (acidic conditions, 48 h). The “Number of TLC spots” value in data set [2] (basic conditions, 10 min) amounted to 1; in data set [2] (basic conditions, 1 h) it was 1; in data set [2] (basic conditions, 2 h), 1; in data set [2] (basic conditions, 3 h) it was 1; in data set [2] (basic conditions, 24 h), 1; in data set [2] (basic conditions, 48 h), 2. Moreover, in data set [2] (basic conditions), the time stable is reported as 24 h. This compound came in with an IC50 against CYP3A4 above 25 µM. On CYP3A4 (human), this compound displayed an inhibition at 25 µM below 50%.
Consider `NC1=N/C(=C\c2cccc(Oc3ccccc3)c2)C(=O)N1CCCN1CCOCC1` [Compound 16], for which the MIC with S. aureus R46-CC22 fell in the range of 250 to 500 µM. Besides, in the data set on S. aureus R45-CC45, the “A (activity gain)” value worked out at 1.
Regarding `NC1=N/C(=C\c2ccc3c(c2)Cc2ccccc2-3)C(=O)N1CCCN1CCOCC1` [Compound 19], the solubility in data set [1] is 8530 µg/mL and 19500 µM. Besides, the “Number of TLC spots” value in data set [2] (acidic conditions, 10 min) was 1; in data set [2] (acidic conditions, 1 h) it was 1; in data set [2] (acidic conditions, 2 h), 1; in data set [2] (acidic conditions, 3 h) it was 2; in data set [2] (acidic conditions, 24 h), 2; in data set [2] (acidic conditions, 48 h) it was 3. The “Number of TLC spots” value in data set [2] (basic conditions, 10 min) worked out at 4; in data set [2] (basic conditions, 1 h), 4; in data set [2] (basic conditions, 2 h), 4; in data set [2] (basic conditions, 3 h), 4; in data set [2] (basic conditions, 24 h), 4; in data set [2] (basic conditions, 48 h) it was 4. This compound registered an IC50 against CYP3A4 of 24.9 µM.
For `NC1=N/C(=C\c2ccc(-c3ccccc3)cc2)C(=O)N1CCN1CCOCC1` [Compound 14], the MIC with S. aureus R46-CC22 and in the data set with S. aureus Mu50 was at least 500 µM in each case. The “A (activity gain)” value with S. aureus R45-CC45 is reported as 2-4.
